Assay results as given in US20190284129A1, “LIPID COMPOUNDS AND COMPOSITIONS AND THEIR OPTHALMIC USE” (BIOZEP AS, priority 2015, published 2019).
Where “and” joins values, the source holds several entries; their conditions need not be identical. Equal entries are not always repeated.

Key:
Assay type in all cases: cell-based
[1] = biological target: T1, human PPARgamma (Homo sapiens, UniProt P37231); test: cellular GAL4 reporter gene assay, agonist mode, PPARgamma
T1 construct: expressed in transfected cells; host or cells: HEK293 (DSMZ ACC 305)
T1 sequence (P37231 238-503 limits assumed): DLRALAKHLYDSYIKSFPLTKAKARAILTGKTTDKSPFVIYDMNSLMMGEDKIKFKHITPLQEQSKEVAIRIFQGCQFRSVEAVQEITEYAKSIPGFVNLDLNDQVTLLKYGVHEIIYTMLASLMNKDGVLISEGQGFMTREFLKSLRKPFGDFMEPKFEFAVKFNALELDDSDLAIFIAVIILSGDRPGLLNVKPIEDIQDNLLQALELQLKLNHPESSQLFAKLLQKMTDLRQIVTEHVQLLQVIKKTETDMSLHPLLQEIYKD
Description: (§1) The assays were done in HEK293 cells (DSMZ ACC 305). The plasmids used in the GAL4 assay system were derivatives of Stratagene's […] plasmids: the reporter plasmid pFR-Luc (containing a synthetic promoter with five tandem repeats of the yeast GAL4 binding sites that control expression of the Photinus pyralis (American firefly) luciferase gene), and pCMV-BD (for fusions of nuclear receptor ligand binding domains to the DNA-binding domain of the yeast protein GAL4). In order to improve experimental accuracy, a second reporter-Renilla reniformis luciferase, driven by a constitutive promoter-was included as an internal control. Using the control reporter (Renilla Luciferase) allowed corrections for variations in experimental handling, e.g. transfection efficacy, cell viability, pipetting errors, cell lysis efficiency and assay efficiency. […] The compounds BIZ-102 and BIZ-103 were tested at the human PPARbeta/delta and PPARgamma receptors using the same cellular GAL4 Reporter gene assays as in Example 6. The assays were run in agonist mode to detect agonistic activities of the tested compounds.

[2] = biological target: T2, human PPARbeta/delta (Homo sapiens, UniProt Q03181); test: cellular GAL4 reporter gene assay, agonist mode, PPARbeta/delta
T2 construct: expressed in transfected cells; host or cells: HEK293 (DSMZ ACC 305)
T2 sequence (Q03181 211-439 limits assumed): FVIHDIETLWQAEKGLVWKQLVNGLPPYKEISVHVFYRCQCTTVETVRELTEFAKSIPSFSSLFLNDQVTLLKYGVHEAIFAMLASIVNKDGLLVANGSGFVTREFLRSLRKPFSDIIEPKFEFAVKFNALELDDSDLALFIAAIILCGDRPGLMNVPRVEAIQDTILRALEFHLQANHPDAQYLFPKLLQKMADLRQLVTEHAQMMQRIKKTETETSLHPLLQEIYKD
Description: as §1

[3] = biological target: T3, human PPARalpha receptor (Homo sapiens, UniProt Q07869); test: cellular GAL4 reporter gene assay (M1H) in HEK293 cells, PPARalpha; settings: agonist mode; for Efficacy vs. Fenofibric Acid / Efficacy vs. GW7647: HEK293; for EC50: HEK293, GAL4 reporter
T3 construct: expressed in transfected cells; host or cells: HEK293 (DSMZ ACC 305)
T3 sequence (Q07869 239-466 limits assumed): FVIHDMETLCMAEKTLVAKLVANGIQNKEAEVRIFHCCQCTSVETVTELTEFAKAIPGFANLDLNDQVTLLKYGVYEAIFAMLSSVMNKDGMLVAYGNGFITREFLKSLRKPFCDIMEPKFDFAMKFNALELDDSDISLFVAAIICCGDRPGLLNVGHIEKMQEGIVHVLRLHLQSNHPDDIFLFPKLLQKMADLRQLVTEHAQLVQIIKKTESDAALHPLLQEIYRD
Method: The compounds BIZ-102 (Example 2), BIZ-103 (Example 5) and BIZ-106 were tested at the human PPARalpha receptor in a cellular GAL4 Reporter gene assay. The assay was run in agonist and antagonist mode to detect agonistic as well as antagonistic activities of the tested compounds.
Performance of the GAL4 cellular reporter assay:
Day 1: Cells were seeded in 96 well plates in plating medium (MEM with serum), incubation overnight at 37° C., 5% CO2.
Day 2: Removal of plating medium
Addition of PEI-based transfection agent
Incubation for 4-6 hours at 37° C., 5% CO2
Addition of assay medium (MEM with serum)
Addition of compounds (dilution series was generated in MEM with serum)
Incubation overnight at 37° C., 5% CO2
Day 3: Removal of assay medium (16-20 hours after compound addition)
Addition of Passive Lysis Buffer (Promega)
15 mins incubation at room temperature
Addition of luciferase buffers and measurement in a dual-flash procedure
The assays were done in HEK293 cells (DSMZ ACC 305). The plasmids used in the GAL4 assay system were derivatives of Stratagene's M2H plasmids: the reporter plasmid pFR-Luc (containing a synthetic promoter with five tandem repeats of the yeast GAL4 binding sites that control expression of the Photinus pyralis (American firefly) luciferase gene), and pCMV-BD (for fusions of nuclear receptor ligand binding domains to the DNA-binding domain of the yeast protein GAL4). In order to improve experimental accuracy, a second reporter—Renilla reniformis luciferase, driven by a constitutive promoter—was included as an internal control. Using the control reporter (Renilla Luciferase) allowed corrections for variations in experimental handling, e.g. transfection efficacy, cell viability, pipetting errors, cell lysis efficiency and assay efficiency.
Primary read out of the assays was loaded into PhAST (Phenex Assay and Screening Tool) and checked for assay quality (generation of SB and Zprime values). […] Within PhAST there are two measured and one calculated data layers:
LAYER1 (measured)—contains the activity values of the firefly luciferase activities and is a direct measure for modulation of the cofactor binding properties of the Nuclear Receptors by the tested compounds.
LAYER2 (measured)—contains the activity values of the renilla luciferase activities and is used as normalisation layer. As the renilla luciferase is expressed under control of the constitutively active CMV promoter, moderate well-to-well differences can be used to correct for variations in experimental handling.
LAYER3 (calculated)—is calculated according to the following equation: […]
1000*Firefly luciferase value/Renilla luciferase value
These normalised values are, as well as LAYER1, a measure for the modulation of the cofactor binding properties of the nuclear receptors by the tested compounds.

[4] = tested on: NF-κB pathway; test: NF-κB luciferase reporter assay in NF-κB Reporter-HEK293 cells, TNFa stimulated; settings: FIG. 5
Description: The NF-κB reporter (luc)-HEK293 cell line is designed for monitoring the nuclear factor Kappa B (NF-κB) signal transduction pathways. It contains a firefly luciferase gene driven by four copies of NF-κB response element located upstream of the minimal TATA promoter. After activation by pro-inflammatory cytokines or stimulants of lymphokine receptors, endogenous NF-κB transcription factors bind to the DNA response elements, inducing transcription of the luciferase reporter gene.
NF-κB Reporter-HEK293 cells were cultured in MEM medium with 10% FBS, 1% non-essential amino acids, 1 mM Na-pyruvate, 1% Penn-strep, and 100 µg/ml of Hygromycin B.
To perform the NF-κB luciferase reporter assay, NF-κB Reporter-HEK293 cells were seeded at 40,000 cells per well into white clear-bottom 96-well microplate in 45 μl of growth medium without Hygromycin B. Cells were incubated at 37° C. and 5% CO2 overnight to allow them to recover and reattach. The following day a series of dilutions of compounds were made in assay medium (MEM medium with 0.5% FBS, 1% non-essential amino acids, 1 mM Na-pyruvate, 1% Penn-strep). The medium was removed from the wells and 45 μl of diluted compound was added to the cells. Assay medium with DMSO was added to the untreated control wells and cell-free control wells. The final concentration of DMSO was 0.25%. The cells were incubated overnight at 37° C. in CO2 incubator. […]
After treatment, cells were then lysed and a luciferase assay was performed using the ONE-Step luciferase assay system. […] Luminescence was measured using a luminometer (BioTek Synergy™ 2 microplate reader).
Reporter assays were performed in triplicate at each concentration. The luminescence intensity data were analyzed using the computer software, Graphpad Prism. In the absence of the compound, the luminescence intensity (Lt) in each data set was defined as 100%. In the absence of cells, the luminescence intensity (Lb) in each data set was defined as 0%. The percent luminescence in the presence of each compound was calculated according to the following equation: % Luminescence=(L−Lb)/(Lt−Lb), where L=the luminescence intensity in the presence of the compound, Lb=the luminescence intensity in the absence of cells, and Lt=the luminescence intensity in the absence of the compound. The values of % luminescence versus a series of compound concentrations were then plotted using non-linear regression analysis of a Sigmoidal dose-response curve generated with the equation Y=B+(T B)/1+10^((Log EC50-X)×Hill Slope), where Y=percent luminescence, B=minimum percent luminescence, T=maximum percent luminescence, X=logarithm of compound and Hill Slope=slope factor or Hill coefficient. The IC50 value was determined by the concentration causing a half-maximal percent activity.

[5] = tested on: ARPE-19 cells; test: oxidative stress (tert-butyl hydroperoxide) cytolysis assay in ARPE-19 retinal pigment epithelial cells; settings: fenofibric acid 25 μM, BIZ-101 10 μM
Method: In order to evaluate the potential of BIZ-101 to protective the eye from oxidative stress damage the compound was tested in a cell based assay. Oxidative stress was induced in an ARPE-19 cell line using tert-butyl hydroperoxide at different concentrations. The cellular viability was kinetically monitored and measured by analysing the plasma membrane integrity based on the incorporation of a non-permeant and fluorescent DNA intercalating agent that selectively stain cytolytic cells with comprised plasma membranes.
(§2) The ARPE-19 cell line was seeded and cultured in DMEM-F12 medium+10% SVF for 24 hrs in a 96 well plate. Cells were pre-treated or not with either fenofibric acid (25 μM) or compound BIZ-101 (10 μM) during this 24 hr period. After 24 hrs, the different concentrations of t-butyl hydroperoxide were added in the presence of a fluorescent DNA intercalating agent for the following monitoring. Live content time-lapse imaging was performed with a sampling rate of 1 image every 2 hr over a 96 hrs period. The number of fluorescent/cytolytic cells were counted and reported during the experiment. The treatment conditions were tested in one experiment session in a triplicate format.
Fenofibric acid was used at 25 μM and was ordered from Sigma Aldrich. The day of the pre-treatment, a 25 mM stock solution of fenofibric acid was prepared in DMSO and diluted in the complete culture medium at 25 μM. 100 μL of this solution or 100 μL of complete culture medium+0.1% DMSO replaced the 100 μL of the complete culture medium already present in the well. The day of the treatment with t-butyl hydroperoxide, a 2 times concentrated solution of fenofibric acid was freshly diluted in the complete culture medium and 50 μL of this solution or 50 μL of complete culture medium+0.2% DMSO were added to the 100 μL of the culture medium already present in the well.
Compound BIZ-101 was tested at a final concentration of 10 μM. A 10 mM predilution was prepared in DMSO from a 10 mM stock solution. The 10 mM solution of BIZ 101 was diluted in the complete culture medium at 10 μM. 100 μL, of this solution or 100 μL of the complete culture medium+0.1% DMSO replaced the 100 μL, of the complete culture medium already present in the well. The day of the treatment with t-butyl hydroperoxide, a 2 times concentrated solution of BIZ 101 was freshly diluted in the complete culture medium and 50 μL of this solution or 50 μL of complete culture medium+0.2% DMSO were added to the 100 μL of the culture medium already present in the well.
Preparation of the tert-butyl hydroperoxide [tBHP] solution: 0, 0.01 mM, 0.03 mM, 0.1 mM, 0.3 mM, 1 mM, 3 mM and 10 mM. A 4 times concentrated solution of tBHP was freshly diluted in the complete culture medium for each of the concentrations to be tested. 50 μL of the 4 times concentrated solution was added to the 150 μL of the cultured medium.
In order to evaluate the potential of BIZ-102 to protect the eye from oxidative stress damage the compound was tested in a cell based assay similar to Example 24 with the following changes. The oxidative stress in the ARPE-19 cell line was induced by using 3 different concentrations of tBHP: 10 μM, 30 μM and 100 μM and BIZ-102 was tested in 2 different concentrations: 1 μM and 10 μM.
as §2, with “with” for “with either fenofibric acid (25 μM) or”, “BIZ-102 (1 μM and 10” for “BIZ-101 (10”
Compound BIZ-102 was tested at a final concentration of 1 and 10 μM. […]

Row | Structure (SMILES) | Efficacy vs. Fenofibric Acid [3] [%] | Efficacy vs. GW7647 [3] [%] | EC50 [3] | further results
1 | CCCCCCCCCCCCCCSC(C)C(=O)O (centres unmarked) [BIZ-103] | 55 | 180 |  | EC50 [1]: 1.6 µM; PPARgamma efficacy vs. Rosiglitazone [1]: 20%; EC50 [2]: 8.9 µM; PPARbeta/delta efficacy vs. GW501516 [2]: 18%
2 | CC/C=C\C/C=C\C/C=C\C/C=C\C/C=C\CCCCOC(CC)C(=O)O (centres unmarked) [BIZ-110, 2-((5Z,8Z,11Z,14Z,17Z)-icosa-5,8,11,14,17-pentaen-1-yloxy) butanoic Acid] |  |  |  | dose dependence of inhibitory effect on the NF-κB pathway [4]: dose dependent; complete inhibition of the NF-κB pathway ([4]; at high concentration): completely inhibited
3 | CC(C)(Oc1ccc(C(=O)c2ccc(Cl)cc2)cc1)C(=O)O [fenofibric acid, reference compound] |  |  | 10 to 18 µM | dose dependent cytotoxicity of tBHP ([5]; 6 hrs after addition of tBHP, 24 hr pre-treatment): slightly decreased; protective effects against tBHP cytotoxicity ([5]; 24 hrs after addition of t-BHP): more efficient

Now from value to compound, other results behind:

Row | Efficacy vs. Fenofibric Acid [3] [%] | Efficacy vs. GW7647 [3] [%] | EC50 [3] | Structure (SMILES) | further results
4 | 25 | 80 | ~5 µM and 5 µM | CC/C=C\C/C=C\C/C=C\C/C=C\C/C=C\C/C=C\CC(CC)C(=O)O (centres unmarked) [BIZ-106, 2-ethyl (4Z,7Z,10Z,13Z,16Z,19Z)-docosa-4,11,10,13,16,19-hexaenoic Acid] | 
5 | 30 | 100 | ~26 µM and 26 µM | CCCCC/C=C\C/C=C\C/C=C\C/C=C\CCCC(=O)O [BIZ-107] | 
